From PubChem BioAssay (NCI)
Several values for one entry are separate records, joined by “and”; a condition that tells them apart may be missing. Identical values can stand only once.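 These data come from cells grown in 96-well plates and exposed to compound for 48 hours at five concentrations. At the GI50, growth is halved. Definition used: TGI = concentration required for complete inhibition of growth.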

Columns and labels:
Test in all cases: NCI tumour cell line growth inhibition, 48 h
[1] = system: SF-539 CNS
[2] = system: TK-10 renal
[3] = system: U251 CNS
[4] = system: SW-620 colon
[5] = system: NCI-H23 lung
[6] = system: HCT-116 colon
[7] = system: NCI-H522 lung
[8] = system: SNB-75 CNS
[9] = system: SF-295 CNS
[10] = system: SK-OV-3 ovarian

Row | Structure (SMILES) | GI50 [1] | TGI [1] | GI50 [2] | TGI [2] | GI50 [3] | TGI [3] | GI50 [4] | TGI [4] | GI50 [5] | TGI [5] | GI50 [6] | TGI [6] | GI50 [7] | TGI [7] | GI50 [8] | TGI [8] | GI50 [9] | TGI [9] | GI50 [10] | TGI [10]
1 | Cn1cc(C2=C(c3cccc4ccccc34)C(=O)NC2=O)c2ccccc21 | 5.99 µM | 14.2 µM | 9.14 µM | > 23.9 µM | 7.44 µM | > 25 µM | 9.45 µM | > 25 µM | 8.92 µM | > 25 µM | 5.92 µM | > 16.7 µM | 6.53 µM | 19.1 µM | 3.73 µM | > 25 µM | 8.26 µM | > 23.1 µM | 8.35 µM | > 25 µM
2 | Cc1[nH]c2ccccc2c1C1Cc2ccccc2N1C(=O)/C=C/C=C/c1ccccc1 (centres undefined) |  | > 100 µM |  | > 100 µM |  | > 100 µM |  | > 100 µM |  | > 100 µM |  | > 100 µM |  | > 100 µM |  | > 100 µM |  | > 100 µM |  | > 100 µM
3 | CCOc1cccc(/C=N/NC(=O)c2ccc(Nc3ccnc(C(F)(F)F)c3)cc2)c1O | 1.1 µM | 11.6 µM | 2.48 µM | > 100 µM | 0.906 µM | > 58 µM | 2.01 µM | > 100 µM | 2.26 µM | 38.6 µM | 0.367 µM | > 71.5 µM | 16.9 µM | > 82.8 µM | 3.34 µM | > 67.5 µM | 1.28 µM | 40.6 µM | 2.01 µM | > 57.8 µM
4 | COc1ccc2nc(-c3cc(-c4cc(OC)c(OC)c(OC)c4)n[nH]3)[nH]c2c1 | 2.42 µM | 9.71 µM | 2.21 µM | 7.58 µM | 2.9 µM | 11.5 µM | 2.89 µM | 11.1 µM | 1.34 µM | 4.91 µM | 1.81 µM | 6.65 µM | 1.21 µM | 3.98 µM | 2.23 µM | 6.34 µM | 1.62 µM | 5.24 µM | 2.83 µM | 9.17 µM
5 | CC[C@@H](C(=O)[C@@H](C)[C@@H](O)[C@H](C)[C@@H]1O[C@@H]([C@@H](CC)C(=O)O)CC[C@@H]1C)C1O[C@]2(C=CC(=O)[C@]3(CC[C@@](C)([C@H]4CC[C@](O)(CC)[C@H](C)O4)O3)O2)[C@H](C)C[C@@H]1C (some centres undefined) | 0.334 µM | 10.4 µM | 2.08 µM | 25.8 µM | 0.0791 µM | 13.3 µM | 0.827 µM | 12.8 µM | 0.0979 µM | 8.93 µM | 0.69 µM | 15.3 µM | 0.052 µM | 3.64 µM | 1.21 µM | 7.12 µM | 1.21 µM | 12.8 µM | 3.7 µM | 16 µM
6 | Cc1cc(O)cc2oc(=O)c3c(O)cc(O)cc3c12 |  | 49.2 µM |  | > 100 µM |  | > 100 µM |  | 49.9 µM |  | 48 µM |  | 37.6 µM |  | 30.4 µM |  | 32.2 µM |  | 63.6 µM |  | 45.5 µM
7 | C1=Cc2ccccc2Nc2ccccc21 | > 100 µM | > 100 µM | > 100 µM | > 100 µM | > 100 µM | > 100 µM | > 100 µM | > 100 µM | > 100 µM | > 100 µM | > 100 µM | > 100 µM | > 100 µM | > 100 µM | > 100 µM | > 100 µM | > 100 µM | > 100 µM | > 100 µM | > 100 µM
8 | COc1cc(-c2nc(Nc3nc4ccccc4[nH]3)nc(N)c2C#N)cc(OC)c1OC | 10.7 µM | 36.2 µM | 30.7 µM | > 100 µM | 10.8 µM | 72.4 µM | 1.85 µM | 26.1 µM | 12.2 µM | 40.2 µM | 4.52 µM | 25.8 µM | 0.45 µM | 3.61 µM | 0.308 µM | 49.9 µM | 0.191 µM |  | 4.4 µM | 56.8 µM
9 | O=C1CC(c2ccc(N3CCOCC3)cc2)(c2ccsc2)NC(=O)C1Sc1ccccc1Cl (centres undefined) | 56.4 µM | > 100 µM | > 100 µM | > 100 µM | 19.5 µM | > 100 µM | 21.6 µM | > 100 µM | 65.5 µM | > 100 µM | 25.4 µM | > 100 µM | 13.8 µM | > 100 µM | 54.9 µM | > 100 µM | 67 µM | > 100 µM | > 100 µM | > 100 µM
10 | COc1ccc2c(=O)c(C)c(-c3ccccc3)oc2c1CN(C)C |  | > 100 µM |  | > 100 µM |  | > 100 µM |  | > 100 µM |  | > 100 µM |  | > 100 µM |  | > 100 µM |  | > 100 µM and 98.4 µM |  | > 100 µM |  | > 100 µM
11 | Cc1ccc([N+](=O)[O-])c2c(NCCNC(=O)Cn3ccnc3[N+](=O)[O-])ccnc12 |  | > 100 µM |  | > 100 µM |  | > 100 µM |  | > 100 µM |  | > 100 µM |  | > 100 µM |  | 38 µM |  | > 100 µM |  | 43.3 µM |  | 59.7 µM
12 | Cn1nccc1Nc1nccc(-c2cc3c(s2)C(C)(C)N(CCN2CCOCC2)C3=O)n1 | 27.9 µM | > 100 µM | 1.31 µM | > 100 µM | 33.7 µM | > 100 µM | 1.22 µM | > 100 µM | 0.858 µM | > 100 µM | 0.594 µM | > 100 µM | 14.9 µM | > 100 µM | 15.9 µM | > 100 µM | > 89.9 µM | > 100 µM | 17 µM | > 86.2 µM
13 | Cc1c(Cl)ccc2c1NC(=O)C2(O)C(C(=O)c1ccccc1)c1ccccc1 (centres undefined) |  | > 100 µM |  | > 100 µM |  | > 100 µM |  | > 100 µM |  | 42.2 µM |  | > 100 µM |  | 93.7 µM |  | > 100 µM |  | 92.6 µM |  | > 100 µM
14 | CCCN(CCCCC(NC(C)=O)C(=O)NCc1ccccc1)C(=O)N(C)N=O (centres undefined) |  | > 100 µM |  | > 100 µM |  | > 100 µM |  | > 100 µM |  | > 100 µM |  | > 100 µM |  | > 100 µM |  | > 100 µM |  | > 100 µM |  | > 100 µM
15 | COc1ccc2c(c1)c(=O)c1ccccc1n2/C=C/C(=O)O |  | > 100 µM |  | > 100 µM |  | > 100 µM |  | > 100 µM |  | > 100 µM |  | > 100 µM |  | > 100 µM |  | > 100 µM |  | > 100 µM |  | > 100 µM
